Counter-ions that a name gives are not always drawn. Marks after values point to notes of the source that are not given here.
Columns and labels:
[1] = Thermal stability in the solid state; type: physicochemical; conditions: 60 °C
[2] = system: Plasmodium berghei, ANKA strain; assay: Single oral dose antimalarial efficacy in P. berghei-infected mice; type: in vivo, C57BL/6J male mice; conditions: single oral dose 144 mg/kg
[3] = Hydrolytic stability in DMSO/water; type: physicochemical; conditions: room temperature, 80/20 DMSO/water at pH 7.4
[4] = system: WT-MEF Noncancerous mouse embryonic fibroblasts; assay: Cytotoxicity, SRB assay, WT-MEF noncancerous fibroblasts; type: cell-based; conditions: Fibroblast, 72 h, read-out: IC50 Values (μM)
[5] = system: Plasmodium berghei, ANKA strain; conditions: cited from earlier work; for Average survival time (not prolonged beyond day): single oral dose of 30 mg/kg, summary of Table 1
[6] = single oral dose of 30 mg/kg (printed in the 1 × 72 column)

| Compound | Time stable in the solid state [1] | Stability in the solid state for one week ([1]; one week) | Adverse effects ([2]; malaria-infected mice) | Time stable in solution [3] | IC50 [4] | Average Survival (days) After Infection [5, 6] | Average survival time (not prolonged beyond day) [5] | Parasitemia at day 30 ([2]; 2 of the 5 mice, appeared sick) | % Suppression of Parasitemia (on day 3 post infection) [5, 6] |
| --- | --- | --- | --- | --- | --- | --- | --- | --- | --- |
| C[C@H]1[C@@H](CC(C[C@H]2O[C@@H]3C[C@]4(C)CC[C@H]5[C@H](C)CC[C@@H]([C@H]2C)[C@@]35OO4)CS(=O)(=O)c2ccc(COC(=O)N(C)C)cc2)O[C@@H]2C[C@]3(C)CC[C@H]4[C@H](C)CC[C@@H]1[C@@]24OO3 [Dimer 4c, dimeric sulfone benzylic dimethyl carbamate] | ≥ 24 h | stable | no adverse effects | at least 12 hours | > 50 µM |  |  |  |  |
| C[C@H]1[C@H](OC(=O)CCC(=O)[O-])O[C@@H]2O[C@@]3(C)CC[C@H]4[C@H](C)CC[C@@H]1[C@@]24OO3.[Na+] [Dimer 1c, sodium artesunate] |  |  |  |  |  | 7.6 ^b days | ≤ 11 days |  |  |
| C[C@H]1[C@@H](CC(C[C@H]2O[C@@H]3C[C@]4(C)CC[C@H]5[C@H](C)CC[C@@H]([C@H]2C)[C@@]35OO4)CS(=O)(=O)c2ccc(CO)cc2)O[C@@H]2C[C@]3(C)CC[C@H]4[C@H](C)CC[C@@H]1[C@@]24OO3 (some centres unmarked) [Dimer 4b, dimeric sulfone benzylic alcohol] | ≥ 24 h |  |  | at least 12 hours | > 50 µM |  |  | 7–9% |  |
| CC(C)(N)CNC(=O)C[C@H]1CC[C@]2(CC1)OO[C@]1(O2)C2CC3CC(C2)CC1C3 [Dimer 7, OZ277 maleate] |  |  |  |  |  | 10.7 ^b days | ≤ 11 days |  | 99.95 ^b % |
